Measurements taken from ChEMBL document CHEMBL5346973 (J Med Chem, 2023).
Where a SMILES comes first, the peptide text is derived from it.

Tests used:
[1] = target: Neuronal acetylcholine receptor subunit alpha-7 (Rattus norvegicus, UniProt Q05941); experiment: Antagonist activity at rat alpha7 nACh receptor expressed in Xenopus oocyte assessed as inhibition of acetylcholine-induced response at -70 mV holding potential by voltage-clamp based electrophysiological assay; type: cell-based
[2] = target: Nicotinic acetylcholine receptor alpha9/alpha10 (Rattus norvegicus, UniProt P43144+Q9JLB5); experiment: Antagonist activity at rat alpha9alpha10 nACh receptor expressed in Xenopus oocyte assessed as inhibition of acetylcholine-induced response at -70 mV holding potential by voltage-clamp based electrophysiological assay; type: cell-based
Sequence of Nicotinic acetylcholine receptor alpha9/alpha10 (P43144 whole entry): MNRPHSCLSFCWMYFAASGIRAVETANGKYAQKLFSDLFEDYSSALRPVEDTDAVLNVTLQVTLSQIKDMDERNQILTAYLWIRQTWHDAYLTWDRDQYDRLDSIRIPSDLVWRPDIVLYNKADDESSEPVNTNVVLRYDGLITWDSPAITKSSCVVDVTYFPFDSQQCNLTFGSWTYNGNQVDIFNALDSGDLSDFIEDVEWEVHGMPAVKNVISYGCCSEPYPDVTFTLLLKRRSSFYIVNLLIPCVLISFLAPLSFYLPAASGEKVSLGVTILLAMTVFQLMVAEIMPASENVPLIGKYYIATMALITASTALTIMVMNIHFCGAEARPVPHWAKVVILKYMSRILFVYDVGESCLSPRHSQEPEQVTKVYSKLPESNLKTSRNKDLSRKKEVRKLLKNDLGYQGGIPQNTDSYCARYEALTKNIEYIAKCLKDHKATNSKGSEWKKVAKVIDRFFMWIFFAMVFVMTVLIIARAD
Sequence of Nicotinic acetylcholine receptor alpha9/alpha10 (Q9JLB5 whole entry): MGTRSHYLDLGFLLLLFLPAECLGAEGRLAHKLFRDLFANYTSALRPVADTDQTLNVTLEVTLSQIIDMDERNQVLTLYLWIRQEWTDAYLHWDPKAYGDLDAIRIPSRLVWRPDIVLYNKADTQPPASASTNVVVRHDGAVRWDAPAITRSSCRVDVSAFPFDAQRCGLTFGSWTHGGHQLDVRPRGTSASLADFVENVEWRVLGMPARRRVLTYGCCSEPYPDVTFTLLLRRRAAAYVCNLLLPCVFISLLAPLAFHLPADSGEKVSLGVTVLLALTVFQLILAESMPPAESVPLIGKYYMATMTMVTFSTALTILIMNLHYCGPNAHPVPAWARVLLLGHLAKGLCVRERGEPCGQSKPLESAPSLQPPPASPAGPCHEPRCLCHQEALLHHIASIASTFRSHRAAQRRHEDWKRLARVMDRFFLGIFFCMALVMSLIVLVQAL

Sequence of Neuronal acetylcholine receptor subunit alpha-7 (Q05941 whole entry): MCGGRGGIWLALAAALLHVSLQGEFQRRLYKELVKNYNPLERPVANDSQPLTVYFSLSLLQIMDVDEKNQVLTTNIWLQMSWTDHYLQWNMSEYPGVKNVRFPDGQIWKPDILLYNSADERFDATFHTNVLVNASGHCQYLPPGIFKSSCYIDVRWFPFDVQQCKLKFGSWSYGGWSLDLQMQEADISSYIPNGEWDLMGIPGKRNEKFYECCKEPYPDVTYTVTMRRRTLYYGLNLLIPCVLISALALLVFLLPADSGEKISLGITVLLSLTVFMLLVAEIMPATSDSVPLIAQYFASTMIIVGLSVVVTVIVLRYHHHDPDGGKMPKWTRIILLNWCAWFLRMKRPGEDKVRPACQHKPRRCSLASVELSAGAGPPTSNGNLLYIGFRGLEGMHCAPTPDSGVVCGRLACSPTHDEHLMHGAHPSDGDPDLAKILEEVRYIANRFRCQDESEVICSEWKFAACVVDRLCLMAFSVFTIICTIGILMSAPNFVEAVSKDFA

Compound	IC50 [1] [µM]	IC50 [2] [nM]
CC[C@H](C)[C@@H]1NC(=O)[C@H](CCCNC(=N)N)NC(=O)[C@H](CCCNC(=N)N)NC(=O)[C@@H]2CSSC[C@H](NC(=O)[C@H](Cc3ccc(O)cc3)NC(=O)[C@H](CCCNC(=N)N)NC(=O)CNC(=O)[C@H](CO)NC(=O)[C@H](CO)NC(=O)[C@H](CCCNC(=N)N)NC(=O)[C@@H](NC(=O)[C@@H](N)[C@@H](C)O)CSSC[C@@H](C(=O)N[C@H](C(=O)O)C(C)C)NC(=O)[C@H](C)NC(=O)[C@H](CC(=O)O)NC(=O)[C@H](C)NC1=O)C(=O)N[C@@H](CCCNC(=N)N)C(=O)N[C@@H](CO)C(=O)N1CCC[C@H]1C(=O)N[C@@H](Cc1ccc(O)cc1)C(=O)N[C@@H](CC(=O)O)C(=O)N[C@@H](CCCNC(=N)N)C(=O)N[C@@H](CCCNC(=N)N)C(=O)N[C@@H](CCCNC(=N)N)C(=O)N[C@@H](CCCNC(=N)N)C(=O)N[C@@H](Cc1ccc(O)cc1)C(=O)N2	7.13	36
CC[C@H](C)[C@@H]1NC(=O)[C@H](CCCNC(=N)N)NC(=O)[C@H](CCCNC(=N)N)NC(=O)[C@@H]2CSSC[C@H](NC(=O)[C@H](Cc3ccc(O)cc3)NC(=O)[C@H](CCCNC(=N)N)NC(=O)CNC(=O)[C@H](CO)NC(=O)[C@H](CO)NC(=O)[C@H](CCCNC(=N)N)NC(=O)[C@@H](NC(=O)[C@H](C)N)CSSC[C@@H](C(=O)N[C@H](C(=O)O)C(C)C)NC(=O)[C@H](C)NC(=O)[C@H](CC(=O)O)NC(=O)[C@H]([C@@H](C)O)NC1=O)C(=O)N[C@@H](CCCNC(=N)N)C(=O)N[C@@H](CO)C(=O)N1CCC[C@H]1C(=O)N[C@@H](Cc1ccc(O)cc1)C(=O)N[C@@H](CC(=O)O)C(=O)N[C@@H](CCCNC(=N)N)C(=O)N[C@@H](CCCNC(=N)N)C(=O)N[C@@H](CCCNC(=N)N)C(=O)N[C@@H](CCCNC(=N)N)C(=O)N[C@@H](Cc1ccc(O)cc1)C(=O)N2	2.45	14
CC[C@H](C)[C@@H]1NC(=O)[C@H](CCCNC(=N)N)NC(=O)[C@H](CCCNC(=N)N)NC(=O)[C@@H]2CSSC[C@H](NC(=O)[C@H](Cc3ccc(O)cc3)NC(=O)[C@H](CCCNC(=N)N)NC(=O)CNC(=O)[C@H](C)NC(=O)[C@H](CO)NC(=O)[C@H](CCCNC(=N)N)NC(=O)[C@@H](NC(=O)[C@@H](N)[C@@H](C)O)CSSC[C@@H](C(=O)N[C@H](C(=O)O)C(C)C)NC(=O)[C@H](C)NC(=O)[C@H](CC(=O)O)NC(=O)[C@H]([C@@H](C)O)NC1=O)C(=O)N[C@@H](CCCNC(=N)N)C(=O)N[C@@H](CO)C(=O)N1CCC[C@H]1C(=O)N[C@@H](Cc1ccc(O)cc1)C(=O)N[C@@H](CC(=O)O)C(=O)N[C@@H](CCCNC(=N)N)C(=O)N[C@@H](CCCNC(=N)N)C(=O)N[C@@H](CCCNC(=N)N)C(=O)N[C@@H](CCCNC(=N)N)C(=O)N[C@@H](Cc1ccc(O)cc1)C(=O)N2 (HELM PEPTIDE1{T.C.R.S.A.G.R.Y.C.R.S.P.Y.D.R.R.R.R.Y.C.R.R.I.T.D.A.C.V}$PEPTIDE1,PEPTIDE1,2:R3-27:R3|PEPTIDE1,PEPTIDE1,9:R3-20:R3$$$V2.0)	6.33	60
CC[C@H](C)[C@@H]1NC(=O)[C@H](CCCNC(=N)N)NC(=O)[C@H](C)NC(=O)[C@@H](NC(=O)[C@H](Cc2ccc(O)cc2)NC(=O)[C@H](CCCNC(=N)N)NC(=O)[C@H](CCCNC(=N)N)NC(=O)[C@H](CCCNC(=N)N)NC(=O)[C@H](CCCNC(=N)N)NC(=O)[C@H](CC(=O)O)NC(=O)[C@H](Cc2ccc(O)cc2)NC(=O)[C@@H]2CCCN2C(=O)[C@H](CO)NC(=O)[C@H](CCCNC(=N)N)NC(=O)[C@@H]2CSSC[C@H](NC(=O)[C@@H](N)[C@@H](C)O)C(=O)N[C@@H](CCCNC(=N)N)C(=O)N[C@@H](CO)C(=O)N[C@@H](CO)C(=O)NCC(=O)N[C@@H](CCCNC(=N)N)C(=O)N[C@@H](Cc3ccc(O)cc3)C(=O)N2)CSSC[C@@H](C(=O)N[C@H](C(=O)O)C(C)C)NC(=O)[C@H](C)NC(=O)[C@H](CC(=O)O)NC(=O)[C@H]([C@@H](C)O)NC1=O	5.61	14
CC[C@H](C)[C@@H]1NC(=O)[C@H](CCCNC(=N)N)NC(=O)[C@H](CCCNC(=N)N)NC(=O)[C@@H](NC(=O)[C@H](Cc2ccc(O)cc2)NC(=O)[C@H](CCCNC(=N)N)NC(=O)[C@H](CCCNC(=N)N)NC(=O)[C@H](CCCNC(=N)N)NC(=O)[C@H](CCCNC(=N)N)NC(=O)[C@H](CC(=O)O)NC(=O)[C@H](Cc2ccc(O)cc2)NC(=O)[C@@H]2CCCN2C(=O)[C@H](CO)NC(=O)[C@H](CCCNC(=N)N)NC(=O)[C@@H]2CSSC[C@H](NC(=O)[C@@H](N)[C@@H](C)O)C(=O)N[C@@H](CCCNC(=N)N)C(=O)N[C@@H](CO)C(=O)N[C@@H](C)C(=O)NCC(=O)N[C@@H](CCCNC(=N)N)C(=O)N[C@@H](Cc3ccc(O)cc3)C(=O)N2)CSSC[C@@H](C(=O)N[C@H](C(=O)O)C(C)C)NC(=O)[C@H](C)NC(=O)[C@H](CC(=O)O)NC(=O)[C@H]([C@@H](C)O)NC1=O (HELM PEPTIDE1{T.C.R.S.A.G.R.Y.C.R.S.P.Y.D.R.R.R.R.Y.C.R.R.I.T.D.A.C.V}$PEPTIDE1,PEPTIDE1,2:R3-9:R3|PEPTIDE1,PEPTIDE1,20:R3-27:R3$$$V2.0)	1.45	27
CC[C@H](C)[C@@H]1NC(=O)[C@H](CCCNC(=N)N)NC(=O)[C@H](CCCNC(=N)N)NC(=O)[C@@H](NC(=O)[C@H](Cc2ccc(O)cc2)NC(=O)[C@H](CCCNC(=N)N)NC(=O)[C@H](CCCNC(=N)N)NC(=O)[C@H](CCCNC(=N)N)NC(=O)[C@H](CCCNC(=N)N)NC(=O)[C@H](CC(=O)O)NC(=O)[C@H](Cc2ccc(O)cc2)NC(=O)[C@H](C)NC(=O)[C@H](CO)NC(=O)[C@H](CCCNC(=N)N)NC(=O)[C@@H]2CSSC[C@H](NC(=O)[C@@H](N)[C@@H](C)O)C(=O)N[C@H](CCCNC(=N)N)C(=O)N[C@@H](CO)C(=O)N[C@@H](CO)C(=O)NCC(=O)N[C@@H](CCCNC(=N)N)C(=O)N[C@@H](Cc3ccc(O)cc3)C(=O)N2)CSSC[C@@H](C(=O)N[C@H](C(=O)O)C(C)C)NC(=O)[C@H](C)NC(=O)[C@H](CC(=O)O)NC(=O)[C@H]([C@@H](C)O)NC1=O	2.25	16
CC[C@H](C)[C@@H]1NC(=O)[C@H](CCCNC(=N)N)NC(=O)[C@H](CCCNC(=N)N)NC(=O)[C@@H]2CSSC[C@H](NC(=O)[C@H](Cc3ccc(O)cc3)NC(=O)[C@H](CCCNC(=N)N)NC(=O)CNC(=O)[C@H](CO)NC(=O)[C@H](CO)NC(=O)[C@H](CCCNC(=N)N)NC(=O)[C@@H](NC(=O)[C@H](C)N)CSSC[C@@H](C(=O)N[C@H](C(=O)O)C(C)C)NC(=O)[C@H](C)NC(=O)[C@H](C)NC(=O)[C@H]([C@@H](C)O)NC1=O)C(=O)N[C@@H](CCCNC(=N)N)C(=O)N[C@@H](CO)C(=O)N1CCC[C@H]1C(=O)N[C@@H](Cc1ccc(O)cc1)C(=O)N[C@@H](CC(=O)O)C(=O)N[C@@H](CCCNC(=N)N)C(=O)N[C@@H](CCCNC(=N)N)C(=O)N[C@@H](CCCNC(=N)N)C(=O)N[C@@H](CCCNC(=N)N)C(=O)N[C@@H](Cc1ccc(O)cc1)C(=O)N2	5.89	27
